What is called IC50 is the concentration needed to halve the response being measured. Low readings indicate greater potency, high ones weaker potency.

In assay [1] the target is T1, Phospholipase A1 member A (Rattus norvegicus, UniProt P97535).
T1 sequence (P97535 whole entry): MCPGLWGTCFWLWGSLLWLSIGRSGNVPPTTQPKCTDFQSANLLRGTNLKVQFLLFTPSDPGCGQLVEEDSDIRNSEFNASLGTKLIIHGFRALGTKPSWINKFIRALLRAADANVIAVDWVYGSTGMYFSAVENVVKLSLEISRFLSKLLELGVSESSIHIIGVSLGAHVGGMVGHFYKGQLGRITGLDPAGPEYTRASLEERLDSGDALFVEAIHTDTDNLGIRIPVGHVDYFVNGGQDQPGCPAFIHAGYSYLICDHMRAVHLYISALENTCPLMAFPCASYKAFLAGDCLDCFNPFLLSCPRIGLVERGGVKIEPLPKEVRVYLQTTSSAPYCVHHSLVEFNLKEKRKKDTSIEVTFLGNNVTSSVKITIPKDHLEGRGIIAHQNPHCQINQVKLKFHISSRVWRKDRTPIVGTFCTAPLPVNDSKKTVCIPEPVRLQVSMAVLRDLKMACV
The assay can be described thus: IC50 was measured as concentration causing 50% inhibition of lysosomal phospholipase A1 activity.

Assay [2] addresses T1, Phospholipase A1 member A. The assay can be described thus: IC50 was measured as concentration causing 50% inhibition of lysosomal phospholipase A1 activity.

Compound `CCNC1CC(N)C(OC2OC(CNC(=O)C(C)N)=CCC2N)C(O)C1OC1OCC(C)(O)C(NC)C1O` (centres undefined) yielded an IC50 in assay [1] of 91.4 µM. In turn, `CCNC1CC(N)C(OC2OC(CNC(=O)C(N)CC(=O)O)=CCC2N)C(O)C1OC1OCC(C)(O)C(NC)C1O` (centres undefined) showed an IC50 in assay [2] of 132 µM. The compound `CC(N)C(=O)NCC1OC(OC2C(N)CC(N)C(OC3OC(CO)C(O)C(N)C3O)C2O)C(O)C(O)C1O` (centres undefined) returned an IC50 in assay [1] of 75.5 µM. That is a double-digit micromolar value. Consider `CCN[C@@H]1C[C@H](N)[C@@H](O[C@H]2OC(CNC(=O)[C@H](C)NC(=O)[C@H](C)N)=CC[C@H]2N)[C@@H](O)[C@H]1O[C@H]1OC[C@](C)(O)[C@H](NC)[C@@H]1O`, for which inhibition in assay [2] was half-maximal at 101 µM (IC50). On the same count and under the same terms, under `C[C@H](N)C(=O)N[C@@H](C)C(=O)NC[C@H]1O[C@H](O[C@H]2[C@@H](O)[C@@H](O[C@H]3O[C@@H](CO)[C@@H](O)[C@H](N)[C@@H]3O)[C@H](N)C[C@@H]2N)[C@H](O)[C@H](O)[C@@H]1O` stands 49.4 µM; under `CCNC1CC(N)C(OC2OC(CNC(=O)CN)=CCC2N)C(O)C1OC1OCC(C)(O)C(NC)C1O` (centres undefined), 118 µM. Take `NC[C@H]1O[C@H](O[C@H]2[C@H](O)[C@@H](O[C@H]3O[C@H](CO)[C@@H](O)[C@H](N)[C@H]3O)[C@H](N)C[C@@H]2N)[C@H](O)[C@@H](O)[C@@H]1O` [CHEBI:17630]: 80.4 µM corresponded to half-maximal inhibition in assay [1] (IC50). Turning to `CN[C@@H]1[C@@H](O)[C@@H](O[C@@H]2[C@@H](O)[C@H](O[C@H]3O[C@H]([C@@H](C)NC)CC[C@H]3N)[C@@H](N)C[C@H]2N)OC[C@]1(C)O` [GENTAMICIN], the IC50 in assay [1] came to 94.2 µM. `CCN[C@@H]1C[C@H](N)[C@@H](O[C@H]2OC(CN)=CC[C@H]2N)[C@H](O)[C@H]1O[C@H]1OC[C@](C)(O)[C@H](NC)[C@H]1O` [Netilmicin]: the IC50 in assay [1] stood at 115 µM.
